Laboratory results from patent publication US10807959B2, “WDR5-MLL1 inhibitors and modulators” (Vanderbilt University, priority 2018, dated 2020).
Blank lines part the entries; values can stand above or below the molecule they belong to.

Key:
WDR5 [1] = biological target: T1, WDR5 (Homo sapiens (Human), UniProt P61964); experiment: Fluorescence polarization anisotropy (FPA) competition assay, displacement of FITC-MLL or 10mer-Thr-FAM peptide; assay type: binding
Description: The assay is run in 384-well format and is read on a BioTek Cytation. […] Replicate values are fit to a 4-parameter fit in XLFit to generate a single IC50 value for each compound that is then converted to a Ki value. Experiments are repeated to generate a 2nd, independent Ki value; values from the two experiments are averaged to produce the reported Ki value for the compound.

WDR5 [2] = biological target: T1, WDR5; experiment: TR-FRET binding assay, displacement of 10mer-Thr-FAM probe from His-tagged WDR5
Experimental: The LanthaScreenTM Elite Tb-anti-HIS Antibody from ThermoFisher Scientific was used for this purpose. […] The ratio of the 520 and 495 signals are then utilized to generate a dose-response curve to calculate an IC50 value. […] WDR[…] tag protein is used at 2 nM.

[3] = Table B2, WDR5 WIN-site binding affinity, values not less than 1 nM (FPA)
[4] = Inhibition of WDR5 by FPA assay

Molecule: 3-(((4,5-dihydro-1H-imidazol-2-yl)amino)methyl)-N-(3,5-dimethoxybenzyl)-4,5-difluorobenzamide [Example B30]
Ki (WDR5 [1]; [3]): 5.32 nM

Molecule: O=C(NC(C1CC1)C1CC1)c1cc(CNC2=NCCN2)cc(-c2ccc(F)cc2Cl)c1 [Example 2, 2′-Chloro-N-(dicyclopropylmethyl)-5-(((4,5-dihydro-1H-imidazol-2-yl)amino)methyl)-4′-fluoro-[1,1′-biphenyl]-3-carboxamide]
Ki (WDR5 [1]; [4]): 6 nM

Molecule: COc1cc(Cn2ccnc2)cc(C(=O)NCc2ccc(Cl)c(C)c2)c1 [Example 113, 3-((1H-Imidazol-1-yl)methyl)-N-(4-chloro-3-methylbenzyl)-5-methoxybenzamide]
Ki (WDR5 [1]; [4]): 141 nM

Molecule: Cc1cc(CNC(=O)c2cc(Cn3ccnc3)cc(OC3CCCC3)c2)ccc1Cl [Example 115, 3-((1H-Imidazol-1-yl)methyl)-N-(4-chloro-3-methylbenzyl)-5-(cyclopentyloxy)benzamide]
Ki (WDR5 [1]; [4]): 3.5 nM

Molecule: COc1cc(CNC(=O)c2cc(Cn3ccnc3)cc(Oc3ccccc3)c2)cc(OC)c1 [Example 120, 3-((1H-imidazol-1-yl)methyl)-N-(3,5-dimethoxybenzyl)-5-phenoxybenzamide]
Ki (WDR5 [1]; [4]): 5.1 nM

Molecule: Cc1ccncc1-c1cc(Cn2ccnc2)cc(C(=O)NCc2ccc(Cl)c(Cl)c2)c1 [Example 121, 3-((1H-imidazol-1-yl)methyl)-N-(3,4-dichlorobenzyl)-5-(4-methylpyridin-3-yl)benzamide]
Ki (WDR5 [1]; [4]): 1.3 nM

Molecule: Cc1cc(-c2cc(Cn3ccnc3)cc(C(=O)NCc3ccc(Cl)c(Cl)c3)c2)ccn1 [Example 123, 3-((1H-Imidazol-1-yl)methyl)-N-(3,4-dichlorobenzyl)-5-(2-methylpyridin-4-yl)benzamide]
Ki (WDR5 [1]; [4]): 8.7 nM

Molecule: COc1cc(CNC(=O)c2cc(Cn3ccnc3)cc(-c3ccoc3C)c2)cc(OC)c1 [Example 130, 3-((1H-Imidazol-1-yl)methyl)-N-(3,5-dimethoxybenzyl)-5-(2-methylfuran-3-yl)benzamide]
Ki (WDR5 [1]; [4]): 2.1 nM

Molecule: O=C(NCc1ccc(Cl)c(Cl)c1)c1cc(Cn2ccnc2)cc(N2CCCC2)c1 [Example 136, 3-((1H-Imidazol-1-yl)methyl)-N-(3,4-dichlorobenzyl)-5-(pyrrolidin-1-yl)benzamide]
Ki (WDR5 [1]; [4]): 6.5 nM

Molecule: CC(C)(NC(=O)c1cc(Cn2ccnc2)cc(-c2ccc(F)cc2Cl)n1)C1CC1 [Example 149, 4-((1H-imidazol-1-yl)methyl)-6-(2-chloro-4-fluorophenyl)-N-(2-cyclopropylpropan-2-yl)picolinamide]
Ki (WDR5 [1]; [4]): 8.6 nM

Molecule: COc1cc(OC)cc(C(C)NC(=O)c2cc(Cn3ccnc3)cc(-c3ccc(F)cc3Cl)n2)c1 (stereo not drawn) [Example 154, 4-((1H-Imidazol-1-yl)methyl)-6-(2-chloro-4-fluorophenyl)-N-(1-(3,5-dimethoxyphenyl)ethyl)picolinamide]
Ki (WDR5 [1]; [4]): 5.1 nM

Molecule: O=C(NCc1cc(Cl)cc(Cl)c1)c1cccc(CNC2=NCCN2)c1 [Example B1, N-(3,5-dichlorobenzyl)-3-(((4,5-dihydro-1H-imidazol-2-yl)amino)methyl)benzamide]
Ki (WDR5 [1]; [3]): 18 nM

Molecule: O=C(NCc1ccc(Cl)c(Cl)c1)c1cccc(CNC2=NCCN2)c1 [Example B3]
Ki (WDR5 [1]; [3]): 209 nM

Molecule: Cc1cc(C)cc(CNC(=O)c2ccc(F)c(CNC3=NCCN3)c2)c1 [Example B7]
Ki (WDR5 [1]; [3]): 8.46 nM

Molecule: O=C(NCc1ccc(Cl)c(Cl)c1)c1cc(Cl)cc(CNC2=NCCN2)c1 [Example B8]
Ki (WDR5 [1]; [3]): 10.7 nM

Molecule: Cc1ccc(CNC(=O)c2cc(Cl)cc(CNC3=NCCN3)c2)cc1Cl [Example B10]
Ki (WDR5 [1]; [3]): 54.5 nM

Molecule: Cc1cc(C)cc(CNC(=O)c2cc(Cl)cc(CNC3=NCCN3)c2)c1 [Example B11]
Ki (WDR5 [1]; [3]): 46 nM

Molecule: CC(NC(=O)c1cc(Cl)cc(CNC2=NCCN2)c1)c1cccc(Cl)c1 (stereo not drawn) [Example B12]
Ki (WDR5 [1]; [3]): 65.1 nM

Molecule: O=C(NCc1ccc(Cl)cn1)c1ccc(F)c(CNC2=NCCN2)c1 [Example B23]
Ki (WDR5 [1]; [3]): 30.3 nM

Molecule: COc1ccc(C(=O)NCc2ccc(F)c(CNC3=NCCN3)c2)cc1Cl [Example B26]
Ki (WDR5 [1]; [3]): 3.24 nM

Molecule: Cc1cc(C)cc(CNC(=O)c2cc(F)c(F)c(CNC3=NCCN3)c2)c1 [Example B31]
Ki (WDR5 [1]; [3]): 8.11 nM

Molecule: Cc1nc(F)ccc1-c1cc(CNC2=NCCN2)cc(C(=O)NCc2ccc(Cl)c(Cl)c2)c1 [Example B64]
Ki (WDR5 [2]): 0.0213 nM

Molecule: Cc1ccncc1-c1cc(CNC2=NCCN2)cc(C(=O)NCc2cc(Cl)cc(Cl)c2)c1 [Example B87]
Ki (WDR5 [2]): 0.198 nM

Molecule: Cc1cc(C)cc(CNC(=O)c2cc(CNC3=NCCN3)cc(-c3ccnc(C)c3)c2)c1 [Example B90]
Ki (WDR5 [2]): 0.115 nM

Molecule: Cc1cc(-c2cc(CNC3=NCCN3)cc(C(=O)NCc3ccc(Cl)c(Cl)c3)c2)cnc1F [Example B99]
Ki (WDR5 [2]): 0.0875 nM

Molecule: Cc1cc(-c2cc(CNC3=NCCN3)cc(C(=O)NCc3cc(Cl)ccn3)c2)cc(C)n1 [Example B111]
Ki (WDR5 [2]): 0.0875 nM

Molecule: O=C(NCc1ccc(Cl)c(Cl)c1)c1cc(CNC2=NCCN2)cc(-c2ccc(F)nc2F)n1 [Example C2]
Ki (WDR5 [2]): 0.311 nM

The remaining lines, values ahead:

Ki (WDR5 [1]; [4]): 2.7 nM
Molecule: COc1cc(CNC(=O)c2cc(CNC3=NCCN3)cc(-c3ccc(F)cc3Cl)c2)cc(OC)c1 [Example 3, 2′-chloro-5-(((4,5-dihydro-1H-imidazol-2-yl)amino)methyl)-N-(3,5-dimethoxybenzyl)-4′-fluoro-[1,1′-biphenyl]-3-carboxamide]

Ki (WDR5 [1]; [4]): 33.7 nM
Molecule: O=C(NCc1cc(Cl)cc(Cl)c1)c1cc(Cl)cc(Cn2ccnc2)c1 [Example 110, 3-((1H-Imidazol-1-yl)methyl)-5-chloro-N-(3,5-dichlorobenzyl)benzamide]

Ki (WDR5 [1]; [4]): 2.2 nM
Molecule: COc1cncc(-c2cc(Cn3ccnc3)cc(C(=O)NCc3ccc(Cl)c(Cl)c3)c2)c1 [Example 128, 3-((1H-Imidazol-1-yl)methyl)-N-(3,4-dichlorobenzyl)-5-(5-methoxypyridin-3-yl)benzamide]

Ki (WDR5 [1]; [4]): 3.9 nM
Molecule: Cc1nc(F)ccc1-c1cc(Cn2ccnc2)cc(C(=O)NC(C)C2CCCCC2)c1 (stereo not drawn) [Example 132, 3-((1H-Imidazol-1-yl)methyl)-N-(1-cyclohexylethyl)-5-(6-fluoro-2-methylpyridin-3-yl)benzamide]

Ki (WDR5 [1]; [4]): > 10000 nM
Molecule: O=C(NCc1ccc(Cl)c(Cl)c1)c1cc(Cn2ccnc2C(F)(F)F)cc(-c2ccc(F)cc2Cl)c1 [Example 135, 2′-Chloro-N-(3,4-dichlorobenzyl)-4′-fluoro-5-((2-(trifluoromethyl)-1H-imidazol-1-yl)methyl)-[1,1′-biphenyl]-3-carboxamide]

Ki (WDR5 [1]; [4]): 13.1 nM
Molecule: CCC(NC(=O)c1cc(Cn2ccnc2)cc(-c2ccc(F)cc2Cl)n1)C1CC1 (stereo not drawn) [Example 152, 4-((1H-Imidazol-1-yl)methyl)-6-(2-chloro-4-fluorophenyl)-N-(1-cyclopropylpropyl)picolinamide]

Ki (WDR5 [1]; [4]): 4.8 nM
Molecule: Cc1cc(C)cc(CNC(=O)c2cc(Cn3ccnc3)cc(-c3ccc(F)cc3Cl)n2)c1 [Example 153, 4-((1H-Imidazol-1-yl)methyl)-6-(2-chloro-4-fluorophenyl)-N-(3,5-dimethylbenzyl)picolinamide]

Ki (WDR5 [1]; [3]): 400 nM
Molecule: CC(C)N(Cc1cccc(Cl)c1)C(=O)c1cccc(CNC2=NCCN2)c1 [Example B2]

Ki (WDR5 [1]; [3]): 11.9 nM
Molecule: Cc1cc(CNC(=O)c2cccc(CNC3=NCCN3)c2)ccc1Cl [Example B4]

Ki (WDR5 [1]; [3]): 17.4 nM
Molecule: O=C(NCc1cc(Cl)cc(Cl)c1)c1cc(Cl)cc(CNC2=NCCN2)c1 [Example B9]

Ki (WDR5 [1]; [3]): 9.05 nM
Molecule: O=C(NCc1cc(Cl)ccn1)c1ccc(F)c(CNC2=NCCN2)c1 [Example B16]

Ki (WDR5 [1]; [3]): 2.47 nM
Molecule: O=C(NCc1cc(Cl)cc(Cl)c1)c1ccc(F)c(CNC2=NCCN2)c1 [Example B17]

Ki (WDR5 [1]; [3]): 1.81 nM
Molecule: COc1cc(OC)cc(C(C)NC(=O)c2ccc(F)c(CNC3=NCCN3)c2)c1 (stereo not drawn) [Example B18]

Ki (WDR5 [1]; [3]): 8.06 nM
Molecule: COc1ccc(CNC(=O)c2ccc(F)c(CNC3=NCCN3)c2)cc1OC [Example B19]

Ki (WDR5 [1]; [3]): 4.6 nM
Molecule: Cc1ccnc(C(NC(=O)c2ccc(F)c(CNC3=NCCN3)c2)C2CC2)c1 (stereo not drawn) [Example B20]

Ki (WDR5 [1]; [3]): 1.5 nM
Molecule: COc1ccnc(CNC(=O)c2ccc(F)c(CNC3=NCCN3)c2)c1 [Example B22]

Ki (WDR5 [1]; [3]): 49.8 nM
Molecule: COc1cc(CN(C)C(=O)c2ccc(F)c(CNC3=NCCN3)c2)cc(OC)c1 [Example B24]

Ki (WDR5 [1]; [3]): 74.2 nM
Molecule: COc1cccc(CNC(=O)c2ccc(F)c(CNC3=NCCN3)c2)n1 [Example B25]

Ki (WDR5 [1]; [3]): 7.52 nM
Molecule: COc1cc(CNC(=O)c2ccc(OC)c(CNC3=NCCN3)c2)cc(OC)c1 [Example B27, 3-(((4,5-dihydro-1H-imidazol-2-yl)amino)methyl)-N-(3,5-dimethoxybenzyl)-4-methoxybenzamide]

Ki (WDR5 [1]; [3]): 24.9 nM
Molecule: Cc1ccnc(CNC(=O)c2ccc(F)c(CNC3=NCCN3)c2)c1 [Example B29]

Ki (WDR5 [2]): 0.634 nM
Molecule: COc1cc(CNC(=O)c2cc(CNC3=NCCN3)cc(-c3ccnc(C)c3)c2)cc(OC)c1 [Example B72]

Ki (WDR5 [2]): 0.0312 nM
Molecule: Cc1cc(-c2cc(CNC3=NCCN3)cc(C(=O)NCc3ccc(Cl)c(Cl)c3)c2)ccn1 [Example B74]

Ki (WDR5 [2]): 0.033 nM
Molecule: Cc1cc(-c2cc(CNC3=NCCN3)cc(C(=O)NCc3cc(Cl)cc(Cl)c3)c2)ccn1 [Example B81]

Ki (WDR5 [2]): 0.118 nM
Molecule: Cc1cc(-c2cc(CNC3=NCCN3)cc(C(=O)NCc3ccc(Cl)c(C)c3)c2)ccn1 [Example B84]

Ki (WDR5 [2]): 0.759 nM
Molecule: Cc1ccncc1-c1cc(CNC2=NCCN2)cc(C(=O)NC(C2CC2)C2CC2)c1 [Example B93]

Ki (WDR5 [2]): 0.0965 nM
Molecule: COc1ccc(CNC(=O)c2cc(CNC3=NCCN3)cc(-c3cc(C)cnc3F)c2)cc1OC [Example B107]

Ki (WDR5 [2]): 0.0385 nM
Molecule: COc1cc(CNC(=O)c2cc(CNC3=NCCN3)cc(-c3cc(C)cnc3F)c2)cc(OC)c1 [Example B109]

Ki (WDR5 [2]): 0.48 nM
Molecule: COc1ccnc(CNC(=O)c2cc(CNC3=NCCN3)cc(-c3cc(OC)ccc3OC)c2)c1 [Example B115]

Ki (WDR5 [2]): 0.106 nM
Molecule: COc1ccnc(CNC(=O)c2cc(CNC3=NCCN3)cc(-c3cc(Cl)ccc3OC)c2)c1 [Example B116]

Ki (WDR5 [2]): 0.132 nM
Molecule: Cc1cc(F)ccc1-c1cc(CNC2=NCCC2)cc(C(=O)NCc2ccc(Cl)c(Cl)c2)n1 [Example C22]
